In patent US20240000872A1, “NOVEL BACTERIOPHAGE THAT LYSES ACINETOBACTER GENUS BACTERIA HAVING RESISTANCE TO ANTIBIOTICS” (priority 2020, published 2024):

Tested on: Acinetobacter baumannii strains
Assay: Antibiotic susceptibility test (CLSI disk diffusion test method, read per CLSI 2016); on antibiotic susceptibility S/I/R: key: ‘S’ means susceptible; ‘I’ means intermediate; ‘R’ means resistant; on susceptibility category (S/I/R): key: ‘S’ means susceptible; ‘I’ means intermediate; ‘R’ means resistant
Type: cell-based
Set-up: antibiotic susceptibility test value / susceptibility test value (number given before S/I/R) / antibiotic susceptibility value: unit not given here

cortrimoxazole
antibiotic susceptibility value (host strain YMC16/01/R353): 160 | susceptibility category (S/I/R) (host strain YMC16/01/R353): R | susceptibility test value (number given before S/I/R) (host strain YMC16/01/R353): 160 | antibiotic susceptibility S/I/R (host strain YMC16/01/R380): S | antibiotic susceptibility value (host strain YMC16/01/R380): 20 | susceptibility category (S/I/R) (host strain YMC16/01/R380): S | susceptibility test value (number given before S/I/R) (host strain YMC16/01/R380): 20 | antibiotic susceptibility S/I/R (host strain YMC16/01/R397): R | antibiotic susceptibility value (host strain YMC16/01/R397): 160 | susceptibility category (S/I/R) (host strain YMC16/01/R397): R | susceptibility test value (number given before S/I/R) (host strain YMC16/01/R397): 160 | antibiotic susceptibility S/I/R (host strain YMC16/01/R405): R | antibiotic susceptibility value (host strain YMC16/01/R405): 320 | susceptibility category (S/I/R) (host strain YMC16/01/R405): R | susceptibility test value (number given before S/I/R) (host strain YMC16/01/R405): 320 | antibiotic susceptibility S/I/R (host strain YMC16/03/R4461): R | antibiotic susceptibility value (host strain YMC16/03/R4461): 320 | susceptibility category (S/I/R) (host strain YMC16/03/R4461): R | susceptibility test value (number given before S/I/R) (host strain YMC16/03/R4461): 320 | antibiotic susceptibility S/I/R (host strain YMC16/05/R2210): R | antibiotic susceptibility value (host strain YMC16/05/R2210): 320 | susceptibility category (S/I/R) (host strain YMC16/05/R2210): R | susceptibility test value (number given before S/I/R) (host strain YMC16/05/R2210): 320 | antibiotic susceptibility S/I/R (host strain YMC16/07/R2512): R | antibiotic susceptibility value (host strain YMC16/07/R2512): 320 | susceptibility category (S/I/R) (host strain YMC16/07/R2512): R | susceptibility test value (number given before S/I/R) (host strain YMC16/07/R2512): 320 | antibiotic susceptibility S/I/R (host strain YMC16/09/R2471): R | antibiotic susceptibility value (host strain YMC16/09/R2471): 160 | susceptibility category (S/I/R) (host strain YMC16/09/R2471): R | susceptibility test value (number given before S/I/R) (host strain YMC16/09/R2471): 160 | antibiotic susceptibility S/I/R (host strain YMC16/10/R2537): R | antibiotic susceptibility value (host strain YMC16/10/R2537): 160 | susceptibility category (S/I/R) (host strain YMC16/10/R2537): R | susceptibility test value (number given before S/I/R) (host strain YMC16/10/R2537): 160 | antibiotic susceptibility S/I/R (host strain YMC16/12/B11422): R | antibiotic susceptibility value (host strain YMC16/12/B11422): 160 | susceptibility category (S/I/R) (host strain YMC16/12/B11422): R | susceptibility test value (number given before S/I/R) (host strain YMC16/12/B11422): 160 | antibiotic susceptibility S/I/R (host strain YMC16/12/B11449): R | antibiotic susceptibility value (host strain YMC16/12/B11449): 320 | susceptibility category (S/I/R) (host strain YMC16/12/B11449): R | susceptibility test value (number given before S/I/R) (host strain YMC16/12/B11449): 320 | antibiotic susceptibility S/I/R (host strain YMC16/12/B13325): R | antibiotic susceptibility value (host strain YMC16/12/B13325): 320 | susceptibility category (S/I/R) (host strain YMC16/12/B13325): R | susceptibility test value (number given before S/I/R) (host strain YMC16/12/B13325): 320 | antibiotic susceptibility S/I/R (host strain YMC16/12/P503): R | antibiotic susceptibility value (host strain YMC16/12/P503): 320 | susceptibility category (S/I/R) (host strain YMC16/12/P503): R | susceptibility test value (number given before S/I/R) (host strain YMC16/12/P503): 320 | antibiotic susceptibility S/I/R (host strain YMC16/12/R4637): R | antibiotic susceptibility value (host strain YMC16/12/R4637): 320 | susceptibility category (S/I/R) (host strain YMC16/12/R4637): R | susceptibility test value (number given before S/I/R) (host strain YMC16/12/R4637): 320 | antibiotic susceptibility S/I/R (host strain YMC17/01/B8053): R | antibiotic susceptibility value (host strain YMC17/01/B8053): 320 | susceptibility category (S/I/R) (host strain YMC17/01/B8053): R | susceptibility test value (number given before S/I/R) (host strain YMC17/01/B8053): 320 | antibiotic susceptibility S/I/R (host strain YMC17/01/B10087): R | antibiotic susceptibility value (host strain YMC17/01/B10087): 160 | susceptibility category (S/I/R) (host strain YMC17/01/B10087): R | susceptibility test value (number given before S/I/R) (host strain YMC17/01/B10087): 160 | antibiotic susceptibility S/I/R (host strain YMC17/01/B12075): S | antibiotic susceptibility value (host strain YMC17/01/B12075): 20 | susceptibility category (S/I/R) (host strain YMC17/01/B12075): S | susceptibility test value (number given before S/I/R) (host strain YMC17/01/B12075): 20 | antibiotic susceptibility S/I/R (host strain YMC17/01/B13454): R | antibiotic susceptibility value (host strain YMC17/01/B13454): 160 | susceptibility category (S/I/R) (host strain YMC17/01/B13454): R | susceptibility test value (number given before S/I/R) (host strain YMC17/01/B13454): 160 | antibiotic susceptibility S/I/R (host strain YMC17/01/P518): R | antibiotic susceptibility value (host strain YMC17/01/P518): 160 | susceptibility category (S/I/R) (host strain YMC17/01/P518): R | susceptibility test value (number given before S/I/R) (host strain YMC17/01/P518): 160 | antibiotic susceptibility S/I/R (host strain YMC17/01/R2812): R | antibiotic susceptibility value (host strain YMC17/01/R2812): 320 | susceptibility category (S/I/R) (host strain YMC17/01/R2812): R | susceptibility test value (number given before S/I/R) (host strain YMC17/01/R2812): 320 | antibiotic susceptibility S/I/R (host strain YMC17/02/B14): R | antibiotic susceptibility value (host strain YMC17/02/B14): 320 | susceptibility category (S/I/R) (host strain YMC17/02/B14): R | susceptibility test value (number given before S/I/R) (host strain YMC17/02/B14): 320
